These results are taken from patent US20130143968A1, “Methods and compositions for the treatment of diabetes and related symtoms” (Emmaus Medical, Inc., priority 2011, published 2013).

A short description of assay [1]: Triglyceride lowering in a person ingesting L-glutamine. The following applies: one person, baseline 500 mg/dL; 30 g per day as an aqueous solution, ingested; after three months. It counts as in vivo. On the procedure: The person ingested 30 g of L-glutamine per day as an aqueous solution. After three months of L-glutamine administration, the person's triglyceride blood level was measured at 150 mg/dL.

Assay [2] can be described thus: HA1C lowering in a person ingesting L-glutamine. It counts as in vivo. The following applies: one person, baseline 6.9%; 30 g per day as an aqueous solution, ingested; after three months. On the procedure: The person ingested 30 g of L-glutamine per day as an aqueous solution. After three months of L-glutamine administration, the person's Hb A1C level was measured at 6.1%.

As for `NC(=O)CC[C@H](N)C(=O)O` [L-glutamine], in assay [1], the triglyceride blood level is on record as 150 mg/dL. Also, in assay [2], the “glycolated hemoglobin level (Hb A1C level)” value was 6.1%.
